Data: patent US20090247559A1 (Exelixis, Inc., priority 2007, published 2009)

Key:
[1] = target: PIM (PIM-1, PIM-2, and/or PIM-3); test: PIM-1, PIM-2 and PIM-3 inhibition, biochemical chemiluminescence assays (Kinase Glo, IC50 determination); details: Table 1 activity class; PIM refers to PIM-1, PIM-2, and/or PIM-3; read-out: PIM IC50 (Activity B)
Experimental: (§1) The IC50 evaluation of compounds against the PIM-1 oncogene was performed in a Chemiluminesence assay utilizing a Greiner 384-well white medium binding white plate format. […] Following an incubation period of 120 minutes at ambient temperature (24-27° C.), 10 μL of Kinase Glo (Promega) was added. The luminescence was measured following a Luminescence Protocol on a Victor plate reader.
as §1, with “PIM-2” for “PIM-1”, “format. […] The assay procedure involves compound dilution followed by addition of 3 nM PIM-2 to the designated well plates and subsequent pre-incubation of the compounds with the enzyme for 30 minutes at ambient temperature (24-27° C.).” for “format.”
as §1, with “PIM-3 Oncogene” for “PIM-1 oncogene”

[2] = target: CK2 (Homo sapiens, UniProt P68400); test: CK2 inhibition, biochemical chemiluminescence holoenzyme assay (Kinase Glo, IC50 determination); details: Table 1 activity class; symbol given only if active; read-out: CK2 IC50 (Activity C)
Chain of CK2 (P68400 whole entry): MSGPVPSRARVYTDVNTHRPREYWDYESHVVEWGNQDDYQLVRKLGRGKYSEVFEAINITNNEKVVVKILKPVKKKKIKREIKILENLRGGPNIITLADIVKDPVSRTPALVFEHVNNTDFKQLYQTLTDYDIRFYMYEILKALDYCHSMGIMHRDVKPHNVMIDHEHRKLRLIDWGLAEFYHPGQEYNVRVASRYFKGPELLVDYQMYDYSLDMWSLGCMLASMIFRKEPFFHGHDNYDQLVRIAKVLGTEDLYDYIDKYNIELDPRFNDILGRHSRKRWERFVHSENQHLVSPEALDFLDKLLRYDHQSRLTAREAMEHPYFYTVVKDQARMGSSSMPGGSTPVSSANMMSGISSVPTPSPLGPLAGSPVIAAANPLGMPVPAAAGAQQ
Chain of CK2 (P67870 whole entry partner): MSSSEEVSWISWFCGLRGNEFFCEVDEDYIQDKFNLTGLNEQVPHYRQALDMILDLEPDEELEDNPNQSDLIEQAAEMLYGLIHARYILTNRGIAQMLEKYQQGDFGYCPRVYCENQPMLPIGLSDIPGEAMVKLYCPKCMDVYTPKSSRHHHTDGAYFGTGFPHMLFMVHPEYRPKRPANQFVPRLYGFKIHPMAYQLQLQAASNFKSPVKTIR
Experimental: Characterization of CK2 Inhibition in a Biochemical Chemiluminesence Assay (IC50 Determination):
The IC50 evaluation of compounds against CK2 was performed in a Chemiluminesence Holoenzyme assay utilizing a Greiner 384-well white medium binding white plate format. […] The assay procedure involves the compound dilution scheme followed by addition of 10 μL of the substrate twice, followed by 10 μL twice of the respective enzyme or buffer to the designated well plates and subsequent pre-incubation of the compounds. Following an incubation period of 150 minutes at ambient temperature (24-27° C.), 10 μL of Kinase Glo (Promega) was added. The luminescence was measured following a Luminescence Protocol on a Victor plate reader.

IC50 [1] | IC50 [2] | Compound
< 10 µM | < 10 µM | COc1ccc(-c2nc3c(oc4ccc(Br)cc43)c(=O)[nH]2)c(Cl)c1OC [Compound 68, 8-bromo-2-[2-chloro-3,4-bis(methyloxy)phenyl][1]benzofuro[3,2-d]pyrimidin-4(3H)-one]
< 10 µM | < 10 µM | O=C(Nc1ccc(-c2nc3c(oc4ccc(Br)cc43)c(=O)[nH]2)c(Cl)c1)c1ccc(Cl)cn1 [Compound 339, N-[4-(8-bromo-4-oxo-3,4-dihydro[1]benzofuro[3,2-d]pyrimidin-2-yl)-3-chlorophenyl]-5-chloropyridine-2-carboxamide]
< 10 µM | < 10 µM | COc1cccc(C(=O)Nc2ccc(-c3nc4c(oc5ccc(Br)cc54)c(=O)[nH]3)c(Cl)c2)c1 [Compound 281, N-[4-(8-bromo-4-oxo-3,4-dihydro[1]benzofuro[3,2-d]pyrimidin-2-yl)-3-chlorophenyl]-3-(methyloxy)benzamide]
< 10 µM | < 10 µM | NCc1cc(Cl)c(-c2nc3c(oc4ccc(Br)cc43)c(=O)[nH]2)cc1F [Compound 211, 2-[4-(aminomethyl)-2-chloro-5-fluorophenyl]-8-bromo[1]benzofuro[3,2-d]pyrimidin-4(3H)-one]
< 10 µM | < 10 µM | COc1ccc(CNCc2nc3c(oc4ccc(Br)cc43)c(=O)[nH]2)cc1 [Compound 261, 8-bromo-2-[({[4-(methyloxy)phenyl]methyl}amino)methyl][1]benzofuro[3,2-d]pyrimidin-4(3H)-one]
< 10 µM | < 10 µM | O=c1[nH]c(-c2ccc(OCC3CNCCO3)cc2)nc2c1oc1ccc(Br)cc12 (stereo not shown) [Compound 359, 8-Bromo-2-{4-[(morpholin-2-ylmethyl)oxy]phenyl}[1]benzofuro[3,2-d]pyrimidin-4(3H)-one]
< 10 µM | < 10 µM | O=C(NC1CCCCC1)c1cccc(-c2nc3c(oc4ccc(Br)cc43)c(=O)[nH]2)c1 [Compound 92, 3-(8-bromo-4-oxo-3,4-dihydro[1]benzofuro[3,2-d]pyrimidin-2-yl)-N-cyclohexylbenzamide]
< 10 µM | < 10 µM | Cc1cc(NC(=O)CN(C)C)ccc1-c1nc2c(oc3ccc(Br)cc32)c(=O)[nH]1 [Compound 62, N-[4-(8-bromo-4-oxo-3,4-dihydro[1]benzofuro[3,2-d]pyrimidin-2-yl)-3-methylphenyl]-N′2′,N′2′-dimethylglycinamide]
< 10 µM | < 10 µM | CNCc1ccc(-c2nc3c(oc4ccc(Br)cc43)c(=O)[nH]2)cc1 [Compound 382, 8-bromo-2-{4-[(methylamino)methyl]phenyl}[1]benzofuro[3,2-d]pyrimidin-4(3H)-one]
< 10 µM | < 10 µM | CN(C)c1ccc(CNCc2nc3c(oc4ccc(Br)cc43)c(=O)[nH]2)cc1 [Compound 104, 8-bromo-2-[({[4-(dimethylamino)phenyl]methyl}amino)methyl][1]benzofuro[3,2-d]pyrimidin-4(3H)-one]
< 10 µM | < 10 µM | O=c1[nH]c(Nc2ccccc2)nc2c1oc1ccc(Br)cc12 [Compound 180, 8-bromo-2-(phenylamino)[1]benzofuro[3,2-d]pyrimidin-4(3H)-one]
< 10 µM | < 10 µM | O=c1[nH]c(-c2ccccc2O)nc2c1oc1ccc(Br)cc12 [Compound 51, 8-bromo-2-(2-hydroxyphenyl)[1]benzofuro[3,2-d]pyrimidin-4(3H)-one]
< 10 µM | < 10 µM | Nc1ccc(-c2nc3c(oc4ccc(Br)cc43)c(=O)[nH]2)cc1 [Compound 354, 2-(4-Aminophenyl)-8-bromo[1]benzofuro[3,2-d]pyrimidin-4(3H)-one]
< 10 µM | < 10 µM | O=c1[nH]c(-c2ccc(NCc3c[nH]cn3)cc2Cl)nc2c1oc1ccc(Br)cc12 [Compound 139, 8-bromo-2-{2-chloro-4-[(1H-imidazol-4-ylmethyl)amino]phenyl}[1]benzofuro[3,2-d]pyrimidin-4(3H)-one]

The remaining lines, values behind:

Compound | IC50 [1] | IC50 [2]
O=c1[nH]c(CN2CCN(c3ccccc3)CC2)nc2c1oc1ccc(Br)cc12 [Compound 260, 8-bromo-2-[(4-phenylpiperazin-1-yl)methyl][1]benzofuro[3,2-d]pyrimidin-4(3H)-one] | < 10 µM | < 10 µM
O=c1[nH]c(NC2CCNCC2)nc2c1oc1ccc(Br)cc12 [Compound 213, 8-bromo-2-(piperidin-4-ylamino)[1]benzofuro[3,2-d]pyrimidin-4(3H)-one] | < 10 µM | < 10 µM
O=c1[nH]c(Cn2ccnc2-c2ccccc2)nc2c1oc1ccc(Br)cc12 [Compound 176, 8-bromo-2-[(2-phenyl-1H-imidazol-1-yl)methyl][1]benzofuro[3,2-d]pyrimidin-4(3H)-one] | < 10 µM | < 10 µM
COc1cccc2oc3c(=O)[nH]c(-c4ccc5[nH]nc(C)c5c4)nc3c12 [Compound 170, 2-(3-methyl-1H-indazol-5-yl)-9-(methyloxy)[1]benzofuro[3,2-d]pyrimidin-4(3H)-one] | < 10 µM | < 10 µM
COc1ccccc1CNc1ccc2oc3c(=O)[nH]c(CN4CC[C@H](O)C4)nc3c2c1 [Compound 466, 2-{[(3S)-3-hydroxypyrrolidin-1-yl]methyl}-8-({[2-(methyloxy)phenyl]methyl}amino)[1]benzofuro[3,2-d]pyrimidin-4(3H)-one] | < 10 µM | < 10 µM
O=c1[nH]c(-c2ccc3c(NCC4CCNCC4)n[nH]c3c2)nc2c1oc1ccc(Br)cc12 [Compound 441, 8-bromo-2-{3-[(piperidin-4-ylmethyl)amino]-1H-indazol-6-yl}[1]benzofuro[3,2-d]pyrimidin-4(3H)-one] | < 10 µM | < 10 µM
O=C(NCc1ccccc1Cl)C1(O)CCN(Cc2nc3c(oc4ccc(Br)cc43)c(=O)[nH]2)C1 (stereo not shown) [Compound 411, ′1-[(8-bromo-4-oxo-3,4-dihydro[1]benzofuro[3,2-d]pyrimidin-2-yl)methyl]-N-[(2-chlorophenyl)methyl]-3-hydroxypyrrolidine-3-carboxamide] | < 10 µM | < 10 µM
O=c1[nH]c(CN2CCC(F)(F)C2)nc2c1oc1ccc(Br)cc12 [Compound 318, 8-bromo-2-[(3,3-difluoropyrrolidin-1-yl)methyl][1]benzofuro[3,2-d]pyrimidin-4(3H)-one] | < 10 µM | < 10 µM
O=c1[nH]c(CN2CC[C@H](O)C2)nc2c1oc1ccc(NCc3cccc(C(F)(F)F)c3)cc12 [Compound 464, 2-{[(3S)-3-hydroxypyrrolidin-1-yl]methyl}-8-({[3-(trifluoromethyl)phenyl]methyl}amino)[1]benzofuro[3,2-d]pyrimidin-4(3H)-one] | < 10 µM | < 10 µM
O=c1[nH]c(CN2CC[C@H](O)C2)nc2c1oc1ccc(NCc3ccccn3)cc12 [Compound 463, 2-{[(3S)-3-hydroxypyrrolidin-1-yl]methyl}-8-[(pyridin-2-ylmethyl)amino][1]benzofuro[3,2-d]pyrimidin-4(3H)-one] | < 10 µM | < 10 µM
O=C(Cc1ccccc1)N1CCC(c2nc3c(oc4ccc(Br)cc43)c(=O)[nH]2)CC1 [Compound 237, 8-bromo-2-[1-(phenylacetyl)piperidin-4-yl][1]benzofuro[3,2-d]pyrimidin-4(3H)-one] | < 10 µM | < 10 µM
O=C(NCc1ccncc1)C1CCN(Cc2nc3c(oc4ccc(Br)cc43)c(=O)[nH]2)C1 (stereo not shown) [Compound 325, 1-[(8-bromo-4-oxo-3,4-dihydro[1]benzofuro[3,2-d]pyrimidin-2-yl)methyl]-N-(pyridin-4-ylmethyl)pyrrolidine-3-carboxamide] | < 10 µM | < 10 µM
O=C(C1CCN(Cc2nc3c(oc4ccc(Br)cc43)c(=O)[nH]2)C1)N1CCC(O)CC1 (stereo not shown) [Compound 272, 8-bromo-2-({3-[(4-hydroxypiperidin-1-yl)carbonyl]pyrrolidin-1-yl}methyl)[1]benzofuro[3,2-d]pyrimidin-4(3H)-one] | < 10 µM | < 10 µM
O=c1[nH]c(N2CCCC2)nc2c1oc1ccc(Br)cc12 [Compound 196, 8-bromo-2-pyrrolidin-1-yl[1]benzofuro[3,2-d]pyrimidin-4(3H)-one] | < 10 µM | < 10 µM
CC(C)(CN1CCCC1)NCc1nc2c(oc3ccc(Br)cc32)c(=O)[nH]1 [Compound 190, 8-bromo-2-{[(1,1-dimethyl-2-pyrrolidin-1-ylethyl)amino]methyl}[1]benzofuro[3,2-d]pyrimidin-4(3H)-one] | < 10 µM | < 10 µM
